What all share (test): NCI tumour cell line growth inhibition, 48 h
Assay [1] concerns SW-620 colon.
In assay [2] the test system is DU-145 prostate.
Assay [3] has as its system NCI-H226 lung.
The test system of assay [4] is NCI-H522 lung.
For assay [5], the system named is TK-10 renal.
The test system of assay [6] is SNB-75 CNS.
Assay [7] has as its system MDA-MB-231 breast.
In assay [8] the test system is UACC-257 melanoma.
Assay [9] deals with NCI-H460 lung.
Assay [10] has as its system M14 melanoma.

Several values for one entry are separate records, joined by “and”; a condition that tells them apart may be missing. Identical values can stand only once.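 Grown in 96-well plates, cells were treated for 48 hours with each compound at five concentrations. Insufficient inhibition: endpoint recorded as highest concentration tested. The concentration for 50% growth inhibition is given as GI50. TGI marks complete inhibition of growth.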

Regarding `CC(C)(C)c1cc(C(=O)/C=C/c2ccc3c(c2)OCO3)cc(C(C)(C)C)c1O`, the TGI is 35.8 µM in assay [1]; over 58 µM in assay [2]; over 80.6 µM in [3]; 66 µM in assay [4]; 58.1 µM in [5]; 15.4 µM in assay [6]. Besides, the TGI in [7] is 37.7 µM; in assay [8] it was 22.1 µM; in [9] it was 15.7 µM; in assay [10], 65.3 µM.
Consider `NC(=O)N/N=C1\CC2C3CC4C2C4C13` (stereo not drawn), for which the TGI in [1], in assay [2], in [3], in [4], in assay [5] and in assay [6] was over 100 µM in each case. For the same molecule, the TGI in [7], in [8], in assay [9] and in assay [10] was over 100 µM throughout.
With `CC(=O)c1ccc2c(c1)CC1(C2)Cc2ccccc2C1=O` (stereo not drawn), the TGI in assay [1] is over 100 µM; in [2], over 100 µM; in [3], over 100 µM; in [4] it was 99.6 µM; in assay [5], 91.4 µM; in [6], over 100 µM. The TGI in assay [7] is over 100 µM; in assay [8], 50.8 µM; in assay [9] it was over 100 µM; in assay [10], over 100 µM.
Consider `O=C1c2ccccc2NC(=S)[C@@H]2CCCN12`, for which the TGI in [1], in [2], in assay [3], in assay [4], in assay [5] and in [6] was over 100 µM each time. Besides, the TGI in assay [7], in assay [8], in assay [9] and in assay [10] was over 100 µM throughout.
Consider `CC(C(=O)O)C(C)(O)C(=O)O` (stereo not drawn), for which the TGI in assay [1], in assay [2], in assay [3], in assay [4], in assay [5] and in assay [6] was over 100 µM throughout. For the same molecule, the TGI in assay [7], in [8], in assay [9] and in [10] was over 100 µM in each case.
Turning to `CCOC(=O)c1nnsc1NN`, the TGI in assay [1], in assay [2], in assay [3], in [4], in [5] and in assay [6] was over 100 µM in each case. Also, the TGI in assay [7], in assay [8], in [9] and in assay [10] was over 100 µM each time.
Regarding `O=C(Nc1noc(-c2ccccc2)n1)c1ccccc1CNc1noc(-c2ccccc2)n1`, the TGI in [1], in [2], in assay [3], in assay [4], in assay [5] and in [6] was over 100 µM each time. Moreover, the TGI in assay [7], in assay [8], in assay [9] and in assay [10] was over 100 µM each time.
On to `CNC(=O)CCCNC(=O)CCCC(=O)N(C)C`, for which the TGI in assay [1], in assay [2], in [3], in assay [4], in assay [5] and in [6] was over 100 µM each time. For the same molecule, the TGI in [7], in [8], in assay [9] and in assay [10] was over 100 µM in each case.
With `O=C1CSC2=NC3=C(COC/C3=C\c3ccc(Br)cc3)C(c3ccc(Br)cc3)N12` (stereo not drawn), the TGI in assay [1], in [2], in [3], in assay [4], in [5] and in assay [6] was over 100 µM each time. Further, the TGI in [7] is over 100 µM; in [8], over 100 µM; in assay [9], over 100 µM; in assay [10], 94.6 µM.
Consider `O=[N+]([O-])c1ccc2c(c1)C1=NN(c3ccccc3)C(c3ccccc3Br)C1CCC2` (stereo not drawn), for which the TGI in assay [1], in assay [2], in assay [3], in [4], in assay [5] and in [6] was over 50 µM in each case. Moreover, the TGI in assay [7], in assay [8], in assay [9] and in assay [10] was over 50 µM in each case.
For the molecule `CCOC(=O)c1cn2c(n1)sc1cc(Cl)cc(Cl)c12`, the TGI in assay [1], in assay [2], in assay [3], in [4], in assay [5] and in [6] was over 100 µM each time. The TGI in assay [7], in [8], in [9] and in [10] was over 100 µM each time.
For `C=C1c2nc3ccccc3n2C=C(c2ccc(Cl)cc2)N1c1ccc(OC)cc1`, the TGI was over 100 µM in assay [1]; 61.8 µM in [2]; 15.6 µM in [3]; 18.5 µM in assay [4]; 13.2 µM in [5]; 7.13 µM in assay [6]. Besides, the TGI in [7] is 53.6 µM; in assay [8], 30.5 µM; in assay [9] it was 18.7 µM; in [10] it was 21 µM.
Turning to `C=C(CN(C)C)C(=O)c1ccccc1[N+](=O)[O-]`, the TGI in assay [1] was 31.3 µM; in assay [2], 52.3 µM and 28.2 µM; in [3] it was > 58.3 µM and 47 µM; in assay [4] it was 7.74 µM; in [5], 34.3 µM and 26.3 µM; in [6] it was 66.3 µM and 44.4 µM. The TGI in assay [7] was 38 µM and 34.1 µM; in assay [8], 29.7 µM and 32.8 µM; in [9] it was 59.3 µM and 45.1 µM; in assay [10], 29.6 µM. Also, the GI50 is 15 µM in [2]; 20.9 µM in [3]; 12.9 µM in assay [5]; 15.8 µM in assay [6]; 12.6 µM in [7]; 14.9 µM in assay [8]. In addition, the GI50 in assay [9] is 19.6 µM; in assay [10], 6.42 µM.
